Results on 3 molecules are retold here after patent publication US7223533B2, “Cell surface proteins and use thereof as indicators of activation of cellular signal transduction pathways” (priority 1999, dated 2007).

In one experiment the target is T1, ML1a receptor (Homo sapiens, UniProt P48039).
T1 construct: expressed in transfected cells; host or cells: S. cerevisiae (CY17353 in A11/A12; aga1 mutant CY19890 in A13), plasmid Cp2695 (PGKp-ML1aR)
The experiment can be described thus: ELISA-like assay of endogenous Aga2 protein with Sag1p21-352. Format: cell-based. To be noted: yeast cells containing the ML1a receptor, peroxidase assay. The method, then: (§1) Extraction of the endogenous Aga2 protein was effected with DTT, as before. Aliquots (25 microliters) of extracts were diluted with 75 microliters of 100 mM sodium bicarbonate, pH 9.5 and the resulting samples were incubated in 96-well polystyrene plates at 4° C. overnight.
(§2) After washing the plates three times with PBS, pH 6.5, supplemented with 0.1% Tween 20, samples were blocked with the same buffer containing 3% bovine serum albumin at 37° C. for 1 hour. After blocking, the plates were incubated subsequently with EndoH-treated Sag1p^21-352 solution (0.5 mg/ml), 1000-fold diluted anti-Xpress antibodies (Invitrogen) and 5000-fold diluted sheep anti-mouse IgG conjugated with horseradish peroxidase (Amersham Pharmacia Biotech). Both Sag1p^21-352 and antibodies were dissolved in PBS, pH 6.5 supplemented with 3% BSA. Each incubation was conducted at room temperature for 1 hr and was followed by three washes with PBS, pH 6.5, 0.1% Tween 20. Finally, the peroxidase activities in each well were determined using tetramethyl benzidine as a substrate. If the Aga2 protein were present in the plate, the Sag1p^21-352 should bind to it, the anti-Xpress antibody binds to the Sag1p^21-352 fusion protein, and the sheep anti-mouse IgG antibodies bind specifically to the anti-Xpress antibody.
For orientation: ELISA stands for enzyme-linked immunosorbent assay.

Experiment [1] concerns the target T2, human melatonin 1a receptor (ML1aR) (Homo sapiens, UniProt P48039).
T2 construct: expressed in transfected cells; host or cells: S. cerevisiae (CY17353 in A11/A12; aga1 mutant CY19890 in A13), plasmid Cp2695 (PGKp-ML1aR)
Description: ELISA of DTT-extracted cell surface Aga2-HA induction (HA.11 antibody, HRP readout). The class given is cell-based. To be noted: for HRP activity: yeast cells, Aga2-HA. As to the method:
(§3) The cells (TOD600=1.5) were pelleted, washed with ice-cold 0.15 M sodium chloride, resuspended in 50 microliters of 25 mM Tris-HCl, pH 8.5, supplemented with 10 mM dithiothreitol (DTI) and incubated for1 hour at 4° C. This DTT incubation step reduced the disulfide bonds between the Aga1 and Aga2 proteins, thereby releasing Aga2 into the extracellular medium. After centrifugation, 50 microliter aliquots of the supernatants were subjected to Western blot analysis. Immunoreactive bands corresponding to Aga2-HA were visualized using HA.11 antibodies (BAbCo) as primary antibodies, sheep anti-mouse IgG conjugated with horseradish peroxidase (Amarsham Pharmacia Biotech) as secondary antibodies, and peroxidase substrate (e.g., tetramethyl benzidine (Pierce)) for a visual readout.
(§4) Western blot analysis is a qualitative, rather than quantitative methodology. To determine the induction of expression of the Aga2 protein quantitatively, an ELISA strategy was utilized. Cells were cultured, treated, and the Aga2 protein extracted from the cell surface by DTT incubation, as above. Aliquots of these DTT extracts (50 microliters in the case of cells utilizing the Ste2 receptor and 5 microliters in other cases) were diluted to 100 microliters with 100 mM sodium bicarbonate, pH 9.5. Samples were incubated in 96-well polystyrene plates at 4 degrees C overnight. Plates were washed three times with PBS, pH 7.2 supplemented with 0.1% Tween 20 and blocked with the same buffer containing 3% bovine serum albumin at 37° C. for 1 hr. After blocking, the plates were incubated subsequently with 5000-fold diluted HA.11 antibodies (BAbCo) and 5000-fold diluted sheep anti-mouse IgG conjugated with horseradish peroxidase (Amersham Pharmacia Biotech). Each incubation was conducted at room temperature for 1 hr and was followed by three washes with PBS, pH 7.2, 0.1% Tween 20. The peroxidase activities in each well were determined using tetramethyl benzidine as a substrate.

The target in experiment [2] is T3, human melatonin 1a receptor (Homo sapiens, UniProt P48039).
T3 construct: expressed in transfected cells; host or cells: S. cerevisiae (CY17353 in A11/A12; aga1 mutant CY19890 in A13), plasmid Cp2695 (PGKp-ML1aR)
T3 sequence (P48039 whole entry): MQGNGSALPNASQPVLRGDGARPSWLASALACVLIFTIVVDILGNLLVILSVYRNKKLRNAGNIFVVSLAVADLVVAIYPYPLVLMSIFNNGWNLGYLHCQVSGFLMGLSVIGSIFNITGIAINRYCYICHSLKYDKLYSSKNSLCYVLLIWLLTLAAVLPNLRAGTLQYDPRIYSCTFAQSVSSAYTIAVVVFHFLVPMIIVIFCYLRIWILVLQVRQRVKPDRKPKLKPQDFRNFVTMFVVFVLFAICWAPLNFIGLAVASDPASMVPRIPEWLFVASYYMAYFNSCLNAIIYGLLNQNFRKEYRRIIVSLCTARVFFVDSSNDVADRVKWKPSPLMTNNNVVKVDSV
Description: Western blot of DTT-extracted Aga2-HA. Format: cell-based. The conditions noted are these: increasing concentrations of ligand vs absence. The method, then:
as §3
(Immunoblotting shows a protein as a band on a membrane.)

A further experiment concerns the target T4, ML1aR (Homo sapiens, UniProt P48039).
T4 construct: expressed in transfected cells; host or cells: S. cerevisiae (CY17353 in A11/A12; aga1 mutant CY19890 in A13), plasmid Cp2695 (PGKp-ML1aR)
Description: Scintillation proximity assay of secreted HA-tagged Aga2p (aga1 mutant strain CY19890). Format: cell-based. To be noted: 1 μM melatonin. The method, then:
A particular embodiment of these types of cell-free Aga2 assays is the scintillation proximity assay. In this technique, the extracellular medium potentially containing the Aga2 protein is incubated with antibodies specific for Aga2. These antibodies are also biotinylated, and thus the antibody-Aga2 complex can be tethered to the surface of SPA beads coated with streptavidin (and also containing scintillant). Sag1p^21-352 is radiolabeled with, e.g., ^125I or ^3H, and is incubated with the Aga2-loaded beads. Binding of the fusion protein to the immobilized Aga2 protein brings the radiolabel in proximity to the scintillant contained within the beads, resulting in the emission of light. This emission can be readily quantitated using a scintillation counter. The presence of light indicates the presence of the Aga2 protein, and thus that the pheromone response pathway was activated in the yeast cells by the test compound via the G protein coupled receptor.
The following experiment was conducted in order to test the utility of the scintillation proximity assay for the detection of Aga2p induction mediated by heterologous receptors in yeast. […] One hundred microliter aliquots of culture media were placed into a 96-well plate and the following solutions were added to each well: 20 μl of 0.5 M sodium phosphate, pH 6.0, 1.5 M sodium chloride, 1% Tween 20, 10% BSA; 0.25 μg of SPA beads (Amersham) coated with biotinylated HA.11 antibodies (BAbCo) in 25 μl of PBS (20 mM sodium phosphate, pH 7.2, 0.15 M sodium chloride) and 25 μl of PBS containing [1^25,]-Sag1p^21-352 (250,000 cpm). SPA beads were prepared as follows. Fifty milligrams of streptavidin-coated yttrium silicate beads were incubated in 2 ml of PBS containing 1% BSA, 0.1% Tween 20 and 0.5 mg biotinylated HA. 11 antibodies for 4 hr at room temperature. The beads were washed three times with PBS and resuspended in 1 ml of the same buffer. Sag1p^21-352 was iodinated according to standard protocols using lactoperoxidase.
Light emission was quantitated using a scintillation counter after incubation of the plate at room temperature for 1 hr, 2 hr and 6 hr.
(In general: Scintillation proximity formats need no separation of bound from free tracer.)

The target in another experiment is T5, Ste2 receptor (Saccharomyces cerevisiae, UniProt D6VTK4).
T5 construct: Yeast cells coexpressing either the endogenous yeast receptor Ste2p; endogenous in cells; host or cells: S. cerevisiae MATa cells (strain CY1892 in the Sag1p-based ELISA)
T5 sequence (D6VTK4 1-431): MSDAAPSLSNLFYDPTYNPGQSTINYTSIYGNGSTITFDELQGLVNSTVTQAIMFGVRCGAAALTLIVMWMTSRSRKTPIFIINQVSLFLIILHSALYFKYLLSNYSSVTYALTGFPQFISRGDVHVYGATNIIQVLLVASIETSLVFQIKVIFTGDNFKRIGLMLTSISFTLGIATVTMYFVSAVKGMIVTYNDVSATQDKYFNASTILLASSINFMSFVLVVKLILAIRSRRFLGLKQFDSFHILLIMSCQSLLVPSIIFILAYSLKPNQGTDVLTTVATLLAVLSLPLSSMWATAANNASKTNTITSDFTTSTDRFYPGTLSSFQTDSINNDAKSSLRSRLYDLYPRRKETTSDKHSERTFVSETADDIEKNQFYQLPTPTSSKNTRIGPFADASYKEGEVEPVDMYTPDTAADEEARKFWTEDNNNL
The experiment can be described thus: ELISA-like assay of endogenous Aga2 protein with Sag1p21-352, anti-Xpress antibodies and HRP conjugate. Format: cell-based, S. cerevisiae. The conditions noted are these: yeast cells containing the Ste2 receptor, peroxidase assay. The method, then:
as §1, §2

Experiment [3] concerns the target T6, Ste2p (Saccharomyces cerevisiae, UniProt D6VTK4).
T6 construct: Yeast cells coexpressing either the endogenous yeast receptor Ste2p; endogenous in cells; host or cells: S. cerevisiae MATa cells (strain CY1892 in the Sag1p-based ELISA)
T6 sequence (D6VTK4 1-431): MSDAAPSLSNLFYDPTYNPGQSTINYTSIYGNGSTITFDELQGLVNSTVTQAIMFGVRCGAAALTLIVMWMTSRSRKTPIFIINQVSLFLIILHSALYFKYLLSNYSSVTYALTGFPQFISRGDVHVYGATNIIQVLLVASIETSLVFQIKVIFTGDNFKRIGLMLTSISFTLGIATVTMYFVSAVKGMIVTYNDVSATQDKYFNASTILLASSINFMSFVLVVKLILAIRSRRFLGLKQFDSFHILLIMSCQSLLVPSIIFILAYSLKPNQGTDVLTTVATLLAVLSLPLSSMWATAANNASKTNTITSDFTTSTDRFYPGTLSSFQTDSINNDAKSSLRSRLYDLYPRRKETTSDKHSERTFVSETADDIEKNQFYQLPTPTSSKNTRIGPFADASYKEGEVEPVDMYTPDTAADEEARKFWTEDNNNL
The experiment can be described thus: ELISA of DTT-extracted cell surface Aga2-HA induction (HA.11 antibody, HRP readout). The class given is cell-based, S. cerevisiae. The conditions noted are these: for HRP activity: yeast cells, Aga2-HA. As to the method:
as §3, §4

Experiment [4] addresses T6, Ste2p. The experiment can be described thus: Western blot of DTT-extracted Aga2-HA. The class given is cell-based, S. cerevisiae. The conditions noted are these: increasing concentrations of ligand vs absence. As to the method:
as §3

Experiment [5] relates to intact MATa cells (strain CY1892). Description: Binding of Sag1p21-352 to yeast cell surface (Western blot of SDS extracts). The arrangement: species or system S. cerevisiae. To be noted: cells with or without 100 nM α-factor; 30° C., 30 min. As to the method:
To ensure that this truncation of the Sag1 protein retained full binding activity to α-agglutinin, and more specifically, the Aga2 protein, binding assays were performed. […] The cells (TOD600=1) were pelleted and resuspended in 0.15 ml of the same media supplemented with varying concentrations of Sag1p^21-352. After incubation at 30° C. for 30 min, the cells were washed three times with the same media and incubated in the presence of 2% SDS for 5 min to release Sag1p^21-352 bound to the cell surface. The SDS extracts were subjected to Western blot analysis. The immunoreactive bands corresponding to Sag1p^21-352 were visualized using anti-Xpress antibodies (Invitrogen), as above.

T4 sequence (P48039 whole entry): as the sequence (P48039 whole entry) above
T2 sequence (P48039 whole entry): as the sequence (P48039 whole entry) above
T1 sequence (P48039 whole entry): as the sequence (P48039 whole entry) above

As to `COc1ccc2[nH]cc(CCNC(C)=O)c2c1` [melatonin], the “induction of the Aga2 protein” value on ML1a receptor was “dose-dependent response”. For the same molecule, the HRP activity in experiment [1] ([Ligand] 1 × 10^−6 M) was determined as 1.112; in experiment [1] ([Ligand] 1.13 × 10^−7 M), 0.829; in experiment [1] ([Ligand] 1.95 × 10^−9 M), 0.278; in experiment [1] ([Ligand] 3.13 × 10^−8 M), 0.767; in experiment [1] ([Ligand] 4.88 × 10^−10 M) it was 0.154; in experiment [1] ([Ligand] 5 × 10^−7 M), 1.216. Besides, the HRP activity in experiment [1] ([Ligand] 7.81 × 10^−9 M) is 0.427. The Induction factor is 19 in experiment [1] (cell surface Aga2-HA, ML1aR); 2.5 at ML1aR (incubation time 1 hr); 2.6 on ML1aR (incubation time 2 hr); 3.1 at ML1aR (incubation time 6 hr). Also, the “expression level of the Aga2 protein” value in experiment [2] is reported as “substantial increase”. Moreover, the “increase in the levels of HA-tagged Aga2p in the culture media” value on ML1aR (scintillation proximity assay) is recorded as “approximately 3 fold”.
Regarding α-factor, the “induction of the Aga2 protein” value at Ste2 receptor is listed as “dose-dependent response”. Moreover, the HRP activity on Ste2p [3] ([Ligand] 1.13 × 10^−7 M) was 2.163; on Ste2p [3] ([Ligand] 2 × 10^−6 M) it was 2.332; at Ste2p [3] ([Ligand] 3.13 × 10^−8 M) it was 0.548; at Ste2p [3] ([Ligand] 5 × 10^−7 M), 2.498; on Ste2p [3] ([Ligand] 7.81 × 10^−9 M) it was 0.280. Moreover, on Ste2p [3] (cell surface Aga2-HA, Ste2p), the Induction factor was found to be 15. For the same molecule, the “expression level of the Aga2 protein” value on Ste2p [4] is recorded as “substantial increase”.

B1: Sag1p^21-352: N-terminal portion of Sag1p (α-agglutinin, residues 21–352) bearing a polyhistidine tag, Xpress epitope and enterokinase cleavage site (protein)
chain: NINDITFSNLEITPLTANKQPDQGWTATFDFSIADASSIREGDEFTLSMPHVYRIKLLNSSQTATISLADGTEAFKCYVSQQAAYLYENTTFTCTAQNDLSSYNTIDGSITFSLNFSDGGSSYEYELENAKFFKSGPMLVKLGNQMSDVVNFDPAAFTENVFHSGRSTGYGSFESYHLGMYCPNGYFLGGTEKIDYDSSNNNVDLDCSSVQVYSSNDFNDWWFPQSYNDTNADVTCFGSNLWITLDEKLYDGEMLWVNALQSLPANVNTIDHALEFQYTCLDTIANTTYATQFSTTREFIVYQGRNLGTASAKSSFISTTTTDLTSINTSAY
modifications: left off: small tags and cut ends
As for B1, the “binding to the cell surface of intact MATa cells” value in experiment [5] is “bound to the cell surface of intact MATa cells only after these cells were treated with α-factor”.
